Reference: the supplement of paper PMC10307832

Assays:
Assay in all cases: relative viability (nuclei count vs DMSO), 5 days (fraction); higher = more cells survive
ABC-1 = test system: ABC-1
In short: (§1)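 Lung cancer cell lines in 1536-well plates were dosed by pin tool the day after seeding, either with one drug alone or with a fixed anchor-drug dose plus five library-drug doses (not always all listed) in √10 steps. After 5 days, cells were fixed and their nuclei stained in one step (final 0.05% Triton X-100, 1% formaldehyde, 1 ug/ml Hoechst), then counted on 4× images. Relative viability is the nuclei count in treated wells divided by that in vehicle wells. Values are medians of duplicate plates.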

NCI-H2085 = test system: NCI-H2085
In short: as §1

NCI-H1299 = test system: NCI-H1299
In short: as §1

RERF-LC-KJ = test system: RERF-LC-KJ
In short: as §1

EBC-1 = test system: EBC-1
In short: as §1

HCC-44 = test system: HCC-44
In short: as §1

NCI-H1703 = test system: NCI-H1703
In short: as §1

Calu-6 = test system: Calu-6
In short: as §1

NCI-H2126 = test system: NCI-H2126
In short: as §1

EKVX = test system: EKVX
In short: as §1

A549 = test system: A549
In short: as §1

NCI-H1993 = test system: NCI-H1993
In short: as §1

IA-LM = test system: IA-LM
In short: as §1

Compound: O=c1cc(N2CCOCC2)oc2c(-c3cccc4c3sc3ccccc34)cccc12 + Cc1nc(NC(=O)N2CCC[C@H]2C(N)=O)sc1-c1ccnc(C(C)(C)C(F)(F)F)c1 [Alpelisib] (partner 2 µM)
- relative viability (ABC-1; first compound 0.01 µM): 1.11
- relative viability (ABC-1; first compound 0.03162 µM): 0.939
- relative viability (ABC-1; first compound 0.1 µM): 1.01
- relative viability (ABC-1; first compound 0.3162 µM): 0.883
- relative viability (ABC-1; first compound 1 µM): 0.857
- relative viability (NCI-H2085; first compound 0.01 µM): 0.941
- relative viability (NCI-H2085; first compound 0.03162 µM): 0.902
- relative viability (NCI-H2085; first compound 0.1 µM): 1.02
- relative viability (NCI-H2085; first compound 0.3162 µM): 0.919
- relative viability (NCI-H2085; first compound 1 µM): 0.983
- relative viability (NCI-H1299; first compound 0.01 µM): 1.05
- relative viability (NCI-H1299; first compound 0.03162 µM): 1.07
- relative viability (NCI-H1299; first compound 0.1 µM): 1.11
- relative viability (NCI-H1299; first compound 0.3162 µM): 1.09
- relative viability (NCI-H1299; first compound 1 µM): 1.09
- relative viability (RERF-LC-KJ; first compound 0.01 µM): 0.834
- relative viability (RERF-LC-KJ; first compound 0.03162 µM): 0.892
- relative viability (RERF-LC-KJ; first compound 0.1 µM): 0.981
- relative viability (RERF-LC-KJ; first compound 0.3162 µM): 0.86
- relative viability (RERF-LC-KJ; first compound 1 µM): 0.9
- relative viability (EBC-1; first compound 0.01 µM): 0.977
- relative viability (EBC-1; first compound 0.03162 µM): 0.77
- relative viability (EBC-1; first compound 0.1 µM): 0.837
- relative viability (EBC-1; first compound 0.3162 µM): 0.966
- relative viability (EBC-1; first compound 1 µM): 0.827
- relative viability (HCC-44; first compound 0.01 µM): 0.841
- relative viability (HCC-44; first compound 0.03162 µM): 0.841
- relative viability (HCC-44; first compound 0.1 µM): 0.826
- relative viability (HCC-44; first compound 0.3162 µM): 0.708
- relative viability (HCC-44; first compound 1 µM): 0.697
- relative viability (NCI-H1703; first compound 0.01 µM): 0.538
- relative viability (NCI-H1703; first compound 0.03162 µM): 0.33
- relative viability (NCI-H1703; first compound 0.1 µM): 0.331
- relative viability (NCI-H1703; first compound 0.3162 µM): 0.317
- relative viability (NCI-H1703; first compound 1 µM): 0.317
- relative viability (Calu-6; first compound 0.01 µM): 0.98
- relative viability (Calu-6; first compound 0.03162 µM): 1.05
- relative viability (Calu-6; first compound 0.1 µM): 1.01
- relative viability (Calu-6; first compound 0.3162 µM): 1.04
- relative viability (Calu-6; first compound 1 µM): 0.974
- relative viability (NCI-H2126; first compound 0.01 µM): 0.721
- relative viability (NCI-H2126; first compound 0.03162 µM): 0.736
- relative viability (NCI-H2126; first compound 0.1 µM): 0.762
- relative viability (NCI-H2126; first compound 0.3162 µM): 0.733
- relative viability (NCI-H2126; first compound 1 µM): 0.729
- relative viability (EKVX; first compound 0.01 µM): 0.88
- relative viability (EKVX; first compound 0.03162 µM): 0.868
- relative viability (EKVX; first compound 0.1 µM): 0.883
- relative viability (EKVX; first compound 0.3162 µM): 0.858
- relative viability (EKVX; first compound 1 µM): 0.824
- relative viability (A549; first compound 0.01 µM): 0.866
- relative viability (A549; first compound 0.03162 µM): 0.775
- relative viability (A549; first compound 0.1 µM): 0.814
- relative viability (A549; first compound 0.3162 µM): 0.811
- relative viability (A549; first compound 1 µM): 0.845
- relative viability (NCI-H1993; first compound 0.01 µM): 0.658
- relative viability (NCI-H1993; first compound 0.03162 µM): 0.741
- relative viability (NCI-H1993; first compound 0.1 µM): 0.797
- relative viability (NCI-H1993; first compound 0.3162 µM): 0.791
- relative viability (NCI-H1993; first compound 1 µM): 0.722
- relative viability (IA-LM; first compound 0.01 µM): 0.837
- relative viability (IA-LM; first compound 0.03162 µM): 0.769
- relative viability (IA-LM; first compound 0.1 µM): 0.828
- relative viability (IA-LM; first compound 0.3162 µM): 0.736
- relative viability (IA-LM; first compound 1 µM): 0.735

Compound: CCN(CC)CCCCNc1ncc2cc(-c3cc(OC)cc(OC)c3)c(NC(=O)NC(C)(C)C)nc2n1 + Cc1nc(NC(=O)N2CCC[C@H]2C(N)=O)sc1-c1ccnc(C(C)(C)C(F)(F)F)c1 [Alpelisib] (partner 2 µM)
- relative viability (ABC-1; first compound 0.01 µM): 1.2
- relative viability (ABC-1; first compound 0.03162 µM): 0.997
- relative viability (ABC-1; first compound 0.1 µM): 1.06
- relative viability (ABC-1; first compound 0.3162 µM): 1.47
- relative viability (ABC-1; first compound 1 µM): 1.13
- relative viability (NCI-H2085; first compound 0.01 µM): 1.04
- relative viability (NCI-H2085; first compound 0.03162 µM): 0.999
- relative viability (NCI-H2085; first compound 0.1 µM): 1.02
- relative viability (NCI-H2085; first compound 0.3162 µM): 0.983
- relative viability (NCI-H2085; first compound 1 µM): 0.907
- relative viability (NCI-H1299; first compound 0.01 µM): 1.12
- relative viability (NCI-H1299; first compound 0.03162 µM): 1.12
- relative viability (NCI-H1299; first compound 0.1 µM): 1.08
- relative viability (NCI-H1299; first compound 0.3162 µM): 1.04
- relative viability (NCI-H1299; first compound 1 µM): 1.04
- relative viability (RERF-LC-KJ; first compound 0.01 µM): 1.08
- relative viability (RERF-LC-KJ; first compound 0.03162 µM): 0.919
- relative viability (RERF-LC-KJ; first compound 0.1 µM): 0.925
- relative viability (RERF-LC-KJ; first compound 0.3162 µM): 0.951
- relative viability (RERF-LC-KJ; first compound 1 µM): 0.826
- relative viability (EBC-1; first compound 0.01 µM): 0.831
- relative viability (EBC-1; first compound 0.03162 µM): 0.887
- relative viability (EBC-1; first compound 0.1 µM): 0.965
- relative viability (EBC-1; first compound 0.3162 µM): 0.918
- relative viability (EBC-1; first compound 1 µM): 0.664
- relative viability (HCC-44; first compound 0.01 µM): 0.93
- relative viability (HCC-44; first compound 0.03162 µM): 0.9
- relative viability (HCC-44; first compound 0.1 µM): 1.12
- relative viability (HCC-44; first compound 0.3162 µM): 0.87
- relative viability (HCC-44; first compound 1 µM): 0.772
- relative viability (NCI-H1703; first compound 0.01 µM): 0.262
- relative viability (NCI-H1703; first compound 0.1 µM): 0.397
- relative viability (NCI-H1703; first compound 0.3162 µM): 0.45
- relative viability (NCI-H1703; first compound 1 µM): 0.292
- relative viability (Calu-6; first compound 0.01 µM): 1
- relative viability (Calu-6; first compound 0.03162 µM): 0.996
- relative viability (Calu-6; first compound 0.1 µM): 0.868
- relative viability (Calu-6; first compound 0.3162 µM): 1.09
- relative viability (Calu-6; first compound 1 µM): 1.01
- relative viability (NCI-H2126; first compound 0.01 µM): 0.736
- relative viability (NCI-H2126; first compound 0.03162 µM): 0.734
- relative viability (NCI-H2126; first compound 0.1 µM): 0.742
- relative viability (NCI-H2126; first compound 0.3162 µM): 0.815
- relative viability (NCI-H2126; first compound 1 µM): 0.75
- relative viability (EKVX; first compound 0.01 µM): 0.818
- relative viability (EKVX; first compound 0.03162 µM): 0.898
- relative viability (EKVX; first compound 0.1 µM): 0.875
- relative viability (EKVX; first compound 0.3162 µM): 1.04
- relative viability (EKVX; first compound 1 µM): 0.893
- relative viability (A549; first compound 0.01 µM): 0.726
- relative viability (A549; first compound 0.03162 µM): 0.801
- relative viability (A549; first compound 0.1 µM): 0.985
- relative viability (A549; first compound 0.3162 µM): 0.828
- relative viability (A549; first compound 1 µM): 0.57
- relative viability (NCI-H1993; first compound 0.01 µM): 0.635
- relative viability (NCI-H1993; first compound 0.03162 µM): 0.707
- relative viability (NCI-H1993; first compound 0.1 µM): 0.691
- relative viability (NCI-H1993; first compound 0.3162 µM): 0.677
- relative viability (NCI-H1993; first compound 1 µM): 0.672
- relative viability (IA-LM; first compound 0.01 µM): 0.62
- relative viability (IA-LM; first compound 0.03162 µM): 0.659
- relative viability (IA-LM; first compound 0.1 µM): 0.672
- relative viability (IA-LM; first compound 0.3162 µM): 0.836
- relative viability (IA-LM; first compound 1 µM): 0.597
